Data as given in patent US20110039762A1, “TARGETED ANTIMICROBIAL MOIETIES” (C3 JIAN, INC., priority 2009, published 2011).
Entries after “also recorded” stand apart in the source; their conditions may differ.

How the values were obtained:
E. faecalis = assay: Kill or inhibit growth/proliferation; morphology, biofilm and growth disruption (Tables 5, 6); assay type: cell-based, Enterococcus faecalis; set-up: key: A: Peptide aggregates; B: Less hyphal formation; Clumps; Diffuse clumps and small polyps; F: Diffuse growth; H: Thin; I: Growth inhibition; Microcolony formation; Rippled; Small polyps; Thick; W: Halo formation on top, microlonies on bottom; note: test concentration or dose not given here
[1] = tested on: microorganisms (e.g., bacteria, yeasts, fungi); assay: Targeting peptide binding to target microorganisms (Table 3); settings: preferably 1x PBS; for Target(s) (microorganisms bound by the targeting peptide): peptide binding in aqueous buffers varied by peptide solubility
microorganisms = assay: Peptides having multiple activities (targeting/binding, antimicrobial, growth or phenotype altering)
Source text: In certain embodiments, peptides described herein can have multiple activities. Thus for example, a peptide can have both binding/targeting activity and antimicrobial activity. Such peptides can be used, e.g., in a chimeric construct, for any or all of these properties. Thus, for example, a peptide designated “B” in Table 8 can be used as a targeting peptide. If it is also designated G or M it can also be used for antimicrobial activity.

MRSA = assay: Kill or inhibit growth/proliferation; morphology, biofilm and growth disruption (Tables 5, 6); assay type: cell-based, Methicillin-resistant Staphylococcus aureus; set-up: key: A: Peptide aggregates; B: Less hyphal formation; Clumps; Diffuse clumps and small polyps; F: Diffuse growth; H: Thin; I: Growth inhibition; Microcolony formation; Rippled; Small polyps; Thick; W: Halo formation on top, microlonies on bottom; note: test concentration or dose not given here
S. epidermidis = assay: as above; assay type: cell-based, Staphylococcus epidermidis; set-up: key: A: Peptide aggregates; B: Less hyphal formation; Clumps; Diffuse clumps and small polyps; F: Diffuse growth; H: Thin; I: Growth inhibition; Microcolony formation; Rippled; Small polyps; Thick; W: Halo formation on top, microlonies on bottom
S. pneumoniae = assay: as above; assay type: cell-based, Streptococcus pneumoniae; set-up: key: A: Peptide aggregates; B: Less hyphal formation; Clumps; Diffuse clumps and small polyps; F: Diffuse growth; H: Thin; I: Growth inhibition; Microcolony formation; Rippled; Small polyps; Thick; W: Halo formation on top, microlonies on bottom; note: test concentration or dose not given here
[2] = microorganism the targeting peptide binds, binding in aqueous buffers varied by peptide solubility
[3] = microorganism(s) the targeting peptide binds, binding in aqueous buffers depending on peptide solubility
[4] = microorganism(s) the targeting peptide binds, peptide binding conducted in aqueous buffers varied by peptide solubility
Throughout, for Organism, effect (morphology, biofilm and growth disruption): test concentration or dose not given here.
Throughout, for Organism, effect: test concentration or dose not given here.

Substance	Organism, effect (E. faecalis)	Activities (microorganisms)	Organism, effect (MRSA)	Organism, effect (S. epidermidis)	Target(s) [1, 4]	further results
DEIKVSDEEIEKFIKENNL [PF-597]	E. faecalis (A)	G B	–	–	–	Target(s) (microorganisms bound by the targeting peptide) [1]: P. mirabilis
PF-024: peptide having multiple activities (chain 1 DLRKAK; chain 2 DLRKAK; Peptide with targeting and/or antimicrobial activity)	–	G B	MRSA (M)	S. epidermidis (D)	–	Target(s) [1, 2]: M. luteus and C. albicans and MRSA and E. faecalis and C. jeikeium
PF-027: peptide having multiple activities (chain 1 HNARKYLEFISQKIDGDKLTKEDSL; chain 2 HNARKYLEFISQKIDGDKLTKEDSL; Peptide with targeting and/or antimicrobial activity)	–	G B	MRSA (M)	S. epidermidis (D)	–	Target(s) [1, 2]: M. luteus and MRSA and E. faecalis and C. jejuni
PF-041: peptide having multiple activities (chain 1 ELLVILPGFI; chain 2 ELLVILPGFI; Peptide with targeting and/or antimicrobial activity)	–	G B	MRSA (M)	S. epidermidis (R)	–	Target(s) [1, 2]: MRSA
PF-064: peptide having multiple activities (chain 1 DYYGKE; chain 2 DYYGKE; Peptide with targeting and/or antimicrobial activity)	–	G B	MRSA (M)	S. epidermidis (D)	–	Target(s) [1, 2]: E. coli
PF-074: peptide having multiple activities (RDIHPIYFMTKD; Peptide with targeting and/or antimicrobial activity)	–	G B	MRSA (M)	S. epidermidis (D)	–	Target(s) [1, 3]: S. epidermidis and M. luteus and MRSA
PF-373: peptide having multiple activities (chain 1 HFYLLFER; chain 2 HFYLLFER; Peptide with targeting and/or antimicrobial activity)	–	G B	MRSA (M)	S. epidermidis (M)	–	Target(s) [1, 3]: S. epidermidis and E. coli and P. aeruginosa and C. albicans and MRSA and E. faecalis and C. jejuni
PF-378: peptide having multiple activities (chain 1 ESAKSNLNFLMQEEWALFLLL; chain 2 ESAKSNLNFLMQEEWALFLLL; Peptide with targeting and/or antimicrobial activity)	–	G B	MRSA (M)	S. epidermidis (M)	–	Target(s) [1, 3]: B. subtilis; also recorded: B. fragilis; also recorded: E. coli; also recorded: P. aeruginosa; also recorded: C. jeikeium
PF-397: peptide having multiple activities (VEDLMEDLNA; Peptide with targeting and/or antimicrobial activity)	–	G B	–	S. epidermidis (C)	S. epidermidis and MRSA and S. pneumoniae and E. faecalis and C. jejuni	–
PF-404: peptide having multiple activities (VLYFQATVV; Peptide with targeting and/or antimicrobial activity)	–	G B	MRSA (M)	S. epidermidis (M)	S. epidermidis; also recorded: E. coli; also recorded: P. aeruginosa; also recorded: E. faecalis; also recorded: C. jeikeium; also recorded: C. jejuni	–
PF-406: peptide having multiple activities (YLEMNADYLSNMDIFDELWEKYLENNK; Peptide with targeting and/or antimicrobial activity)	–	G B	MRSA (M)	S. epidermidis (C)	E. coli; also recorded: C. jejuni	–
PF-408: peptide having multiple activities (YCVPLGNMGNMNNKIW; Peptide with targeting and/or antimicrobial activity)	–	G B	MRSA (M)	S. epidermidis (M)	S. epidermidis and E. coli and P. aeruginosa and MRSA and E. faecalis and C. jeikeium and C. jejuni	–
PF-417: peptide having multiple activities (DSYFRS; Peptide with targeting and/or antimicrobial activity)	–	G B	MRSA (M)	S. epidermidis (M)	S. epidermidis; also recorded: C. jeikeium; also recorded: C. jejuni	Organism, effect (S. pneumoniae): S. pneumoniae (M)
PF-430: peptide having multiple activities (AVVCGYLAYTATS; Peptide with targeting and/or antimicrobial activity)	–	G B	MRSA (M)	S. epidermidis (M)	S. epidermidis; also recorded: M. luteus; also recorded: E. coli; also recorded: S. pneumoniae; also recorded: E. faecalis; also recorded: C. jeikeium; also recorded: C. jejuni	Organism, effect (S. pneumoniae): S. pneumoniae (M)
PF-484: peptide having multiple activities (chain 1 HKKDIRKQVFKN; chain 2 HKKDIRKQVFKN; Peptide with targeting and/or antimicrobial activity)	E. faecalis (A)	G B	–	–	S. epidermidis; also recorded: M. luteus; also recorded: P. mirabilis; also recorded: E. coli; also recorded: E. faecalis; also recorded: C. jeikeium; also recorded: C. jejuni	–
PF-582 (NLKTIEKECPFCNNKMDIKLKD; Peptide with targeting and/or antimicrobial activity)	E. faecalis (A)	–	–	–	–	–
PF-588: peptide having multiple activities (ESVEAIKAKAIK; Peptide with targeting and/or antimicrobial activity)	E. faecalis (A)	G B	–	–	S. epidermidis; also recorded: E. coli; also recorded: C. albicans; also recorded: E. faecalis; also recorded: C. jeikeium; also recorded: C. jejuni	–
PF-593: peptide having multiple activities (MEISTLKKEKLHVKDELSQYLANYKK; Peptide with targeting and/or antimicrobial activity)	E. faecalis (A)	G B	–	–	C. jeikeium	–
PF-594: peptide having multiple activities (IVSAIV; Peptide with targeting and/or antimicrobial activity)	E. faecalis (C)	G B	–	–	C. jeikeium	–
PF-602: peptide having multiple activities (LEKEKKEYIEKLFKTK; Peptide with targeting and/or antimicrobial activity)	E. faecalis (A)	G B	–	–	–	Target(s) (microorganisms bound by the targeting peptide) [1]: P. mirabilis; also recorded: C. jeikeium
PF-604: peptide having multiple activities (LMEQVEV; Peptide with targeting and/or antimicrobial activity)	E. faecalis (A)	G B	–	–	–	Target(s) (microorganisms bound by the targeting peptide) [1]: S. epidermidis; also recorded: C. albicans; also recorded: C. jeikeium
PF-649 (chain 1 CPRYPFVDVGPAGPWRARWRVGS; chain 2 CPRYPFVDVGPAGPWRARWRVGS; Peptide with targeting and/or antimicrobial activity)	–	–	–	–	–	Organism, effect (morphology, biofilm and growth disruption) (E. faecalis): E. faecalis (R); Target(s) (microorganisms bound by the targeting peptide) [1]: Mycobacteria spp
PF-683 (chain 1 LWPVA; chain 2 LWPVA; Peptide with targeting and/or antimicrobial activity)	–	–	–	–	–	Target(s) (microorganisms bound by the targeting peptide) [1]: Mycobacteria spp; Organism, effect (morphology, biofilm and growth disruption) (S. pneumoniae): S. pneumoniae (H); Organism, effect (morphology, biofilm and growth disruption) (MRSA): MRSA (R); Organism, effect (morphology, biofilm and growth disruption) (S. epidermidis): S. epidermidis (R)
PF-760: peptide having multiple activities (DHITLDDYEIHDGFNFELYYG; Peptide with targeting and/or antimicrobial activity)	–	G B	–	–	–	Target(s) (microorganisms bound by the targeting peptide) [1]: S. epidermidis; also recorded: M. luteus; Organism, effect (morphology, biofilm and growth disruption) (S. pneumoniae): S. pneumoniae (C); Organism, effect (morphology, biofilm and growth disruption) (MRSA): MRSA (M); Organism, effect (morphology, biofilm and growth disruption) (S. epidermidis): S. epidermidis (M)
